US6469028B1, “Synthesis and use of retinoid compounds having negative hormone and/or anatgonist activities” (Allergan, Inc., priority 1995, dated 2002)

Tests used:
RARα [1] = target: T1, RARα (Homo sapiens, UniProt P10276); assay: Example 8: protease protection analysis; type: biochemical; design: host or cells: TNT-coupled reticulocyte lysate in vitro transcription-translation; settings: ATRA and AGN 193109 100 nM, AGN 193583 1000 nM; trypsin 25, 50 or 100 μg/ml, 10 minutes
T1 sequence (P10276 1-462): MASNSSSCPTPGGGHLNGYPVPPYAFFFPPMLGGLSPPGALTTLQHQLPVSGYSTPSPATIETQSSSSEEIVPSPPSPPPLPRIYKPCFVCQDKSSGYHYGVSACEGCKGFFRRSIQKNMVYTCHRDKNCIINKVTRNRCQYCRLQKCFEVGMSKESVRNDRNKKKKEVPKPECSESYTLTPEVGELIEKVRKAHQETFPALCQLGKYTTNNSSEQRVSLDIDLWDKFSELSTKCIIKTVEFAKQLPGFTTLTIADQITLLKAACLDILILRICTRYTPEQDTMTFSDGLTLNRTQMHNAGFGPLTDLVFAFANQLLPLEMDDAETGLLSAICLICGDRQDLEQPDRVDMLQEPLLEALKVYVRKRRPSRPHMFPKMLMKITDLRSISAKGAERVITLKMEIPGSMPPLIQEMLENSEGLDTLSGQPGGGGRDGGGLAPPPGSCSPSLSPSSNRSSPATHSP
Procedure: A plasmid constructed in the vector pGEM3Z (Pharmacia) and containing the RAR-α cDNA (Giguere et al. Nature 330:624 (1987)), was used in connection with the TNT-coupled reticulocyte lysate in vitro transcription-translation system (Promega) to prepare [^35S]-methionine labeled RAR-α. Limited proteolytic digestion of the labeled protein RAR-α was carried out according to the method described by Keidel et al. in Mol. Cell. Biol. 14:287 (1994). […] After ligand binding, 1 μl of appropriately concentrated trypsin was added to the mixture to give final concentrations of 25, 50 or 100 μg/ml. Samples were incubated at room temperature for 10 minutes and trypsin digestion stopped by addition of SDS-sample buffer. Samples were subjected to polyacrylamide gel electrophoresis and autoradiographed according to standard procedures.

RARα [2] = target: T1, RARα; assay: Transactivation in CV-1 cells, ΔMTV-TREp-Luc reporter; type: cell-based; design: expressed in transfected cells; host or cells: green monkey CV-1 cells; settings: 10^−9 to 10^−6 M, 18 hours
Procedure: AGN 193109 was also tested for its ability to transactivate RARs in CV-1 cells transiently cotransfected with RAR expression vectors and a retinoid responsive reporter gene construct. Receptor expression vectors pRShRAR-α (Giguere et al. Nature 330:624 (1987)), pRShRAR-β (Benbrook et al. Nature 333:669 (1988)) and pRShRAR-γ (Ishikawa et al. Mol. Endocrinol. 4:837 (1990)) were separately cotransfected with the ΔMTV-TREp-Luc reporter plasmid. Use of this luciferase reporter plasmid has been disclosed by Heyman et al. in Cell 68:397 (1992). The ΔMTV-TREp-Luc plasmid is essentially identical to the ΔMTV-TREp-CAT reporter construct described by Umesono et al. in Nature 336:262 (1988), except that the chloramphenicol acetyltransferase (CAT) reporter gene was substituted by a polynucleotide sequence encoding firefly luciferase. Transfection of green monkey CV-1 cells was carried out using the calcium phosphate coprecipitation method described in Molecular Cloning: A Laboratory Manual (Sambrook et al. eds. Cold Spring Harbor Lab Publ. 1989). CV-1 cells were plated at a density of 4×10^4/well in 12 well multiwell plates and transiently transfected with a calcium phosphate precipitate containing 0.7 μg of reporter plasmid and 0.1 μg of receptor plasmid according to standard laboratory procedures. […]

[3] = tested on: MRP-8 expression in primary foreskin keratinocytes; assay: Example 20: MRP-8 expression in keratinocytes (RT-PCR); type: cell-based, human; settings: AGN 191183 10^−7 M or AGN 193109 10^−6 M, 3 days
Source text: Primary foreskin keratinocytes were isolated according to the procedure described by Nagpal et al. in J. Biol. Chem. 270:923 (1995) and cultured in keratinocyte growth medium (KGM) that was purchased from Clonetics. […] The mRNA was reverse transcribed into cDNA which then served as the template in a PCR amplification protocol using primers specific for either the glyceraldehyde phosphate dehydrogenase (GAPDH) housekeeping gene or MRP-8. The GAPDH primers had the sequences [NT] ID NO:6) and [NT] ID NO:7). The MRP-8 primers had the sequences [NT] ID NO:8) and [NT] ID NO:9). An aliquot from the MRP-8 amplification reaction (10 μl) was removed after every cycle of PCR amplification starting from 12 cycles and ending at 21 cycles. Similarly, an aliquot of the GAPDH amplification reaction was removed after every PCR cycle starting at 15 cycles and ending at 24 cycles. […] The staining intensity of the amplification products served as a quantitative measure of the amount of starting MRNA specific for the given primer set.

CaSki cell tumors = assay: Example 22: CaSki cell tumor growth in nude mice; type: in vivo; settings: 20 μMol/kg AGN 193109 in corn oil daily, intragastric
Procedure: 1×10^6 CaSki cells are injected into each of a panel of nude mice. Tumor formation is assessed using techniques that will be familiar to one having ordinary skill in the art. After injection, mice are randomly divided into control and test groups. The control group receives a placebo. The test group is administered with AGN 193109. Animals administered with the placebo receive intragastric intubation of corn oil. The test animals receive 20 μMol/kg AGN 193109 in corn oil daily for the period of the treatment. Tumor volume is measured in […] using graduated calipers. Tumor volume is plotted as function of time.

hairless mice = assay: Example 2: skin irritation and weight loss by oral agonist, topical antagonist; type: in vivo
Procedure: Mice were simultaneously treated topically on the dorsal skin with vehicle (97.6% acetone/2.4% dimethylsulfoxide) or solutions of AGN 193109 in vehicle (6 ml/kg). Specific doses for the different treatment groups are give in Table 8. Treatments were administered daily for 4 consecutive days. Mice were weighed and graded for topical irritation daily as described in Example 1 up to and including 1 day after the last treatment. Percent body weight change is calculated by subtracting […], dividing by initial body weight, and multiplying by 100%. Topical irritation scores are calculated as described in Example 1.

RXRs = assay: Affinity for the RXRs; type: binding
[4] = group E: topical AGN 193109 0.47 mg/kg/d alone

Cc1ccc(C2=CCC(C)(C)c3ccc(C#Cc4ccc(C(=O)O)cc4)cc32)cc1 [Compound 60, 4-[(5,6-dihydro-5,5-dimethyl-8-(4-methylphenyl)-2-naphthalenyl)ethynyl]benzoic acid]
pattern of trypsin sensitivity of labeled RAR-α after prebinding (RARα [1]): a protease protection pattern that was indistinguishable from that produced by prebinding of ATRA | EC50 (nM) RAR-α (RARα [2]): No Activity | MRP-8 mRNA expression [3]: repressed MRP8 expression | tumor growth rate (CaSki cell tumors): tumors which are significantly reduced in their growth rate | Topical Irritation Score (hairless mice; group C: topical AGN 193109 […] + oral AGN 191183 0.26 mg/kg/d): 1 ± 1 | % Weight Gain or (Loss) (hairless mice; group C: topical AGN 193109 […] + oral AGN 191183 0.26 mg/kg/d, parentheses = loss): (9 ± 5) % | Topical Irritation Score (hairless mice; group D: topical AGN 193109 0.47 mg/kg/d + oral AGN 191183 0.26 mg/kg/d): 0 ± 1 | % Weight Gain or (Loss) (hairless mice; group D: topical AGN 193109 0.47 mg/kg/d + oral AGN 191183 0.26 mg/kg/d, parentheses = loss): (3 ± 5) % | % Weight Gain or (Loss) (hairless mice; [4]): 3 ± 3% | Topical Irritation Score (hairless mice; [4]): 0 ± 0 | affinity for the RXRs (RXRs): no measurable affinity
